Where “and” joins values, the source holds several entries; their conditions need not be identical. Equal values may be shown once. Numbers after ± are expanded uncertainties.
Settings: for mass density: 407.69 K, Fluid (supercritical or subcritical phases), Bellows volumetry

CC(C)C [2-methylpropane]
Settings | mass density
3627.5 kPa | 203.1 ± 1.8 kg/m3
3629.3 kPa | 205.78 ± 2 kg/m3
3631.2 kPa | 208.58 ± 2.2 kg/m3
3632.8 kPa | 211.59 ± 3.3 kg/m3
3634 kPa | 214.88 ± 4.6 kg/m3
3634.8 kPa | 218.47 ± 4.5 kg/m3
3635.3 kPa | 222.42 ± 5.1 kg/m3
3635.4 kPa | 223.5 ± 5.1 kg/m3
3635.7 kPa | 225.57 ± 5.1 kg/m3 and 226.64 ± 5.1 kg/m3
3636.3 kPa | 228.77 ± 5 kg/m3
3637 kPa | 230.86 ± 5.4 kg/m3
3638.4 kPa | 235.26 ± 4.3 kg/m3
3639.6 kPa | 239.96 ± 4.2 kg/m3
3641.1 kPa | 244.93 ± 4.3 kg/m3

Settings | Critical temperature [K]
Liquid, Visual observation in a stirred cell | 407.69 ± 0.05
